Experimental findings from patent US20240382612A1, “BIOACTIVE CONJUGATE, PREPARATION METHOD THEREFOR AND USE THEREOF” (priority 2017, published 2024) are described below.

The subject of data set [1] is human gastric cancer cell line NCI-N87. Put plainly: Experimental example 1: NCI-N87 gastric cancer subcutaneous xenograft, tumor inhibition. The format is in vivo, Balb/c-nu mice. Conditions: D21 after administration; IV, BIW×3W; BT001021 and Immu-132 3 mg/kg, toxins T-030 and SN-38 equimolar to ADC. As for the experimental part:
Tumor-bearing mice (6 mice/group) with tumor volume of 100-200 mm^3 were randomly grouped (the number of groups was determined according to sample number). The administration volume was 10 ml/kg, and the administration route was tail intravenous injection. The mice were administered twice a week, and tumor diameter was measured with a vernier caliper, and tumor volume was calculated based on the following calculation formula: V=0.5 a×b^2, wherein a and b stand for the long diameter and short diameter of a tumor respectively. Animal deaths were observed and recorded every day.
The tumor growth inhibition rate TGI (%) was calculated from the following formula to evaluate tumor inhibitory effect of antibody drug conjugates:
Specifically, in the experimental examples 1 and 2, tumor-bearing mice models were constructed by subcutaneous xenograft of a human gastric cancer cell line NCI-N87 or a human triple negative breast cancer cell line HCC1806. After the tumor volume was about 100 mm^3, the mice were randomly grouped, and intravenously administered with BT001021 twice a week for a total of 6 times. Changes in tumor volume and animal body weight were measured twice a week to evaluate the efficacy (tumor inhibitory effect) of the antibody drug conjugate on tumor-bearing mice.
NCI-N87 cells were cultured in a 1640 culture medium containing 10% fetal bovine serum at 37° C. and 5% CO2. NCI-N87 cells in the exponential growth stage were collected, resuspended in PBS to a suitable concentration, and inoculated subcutaneously into female Balb/c-nu mice to construct gastric cancer models. When the mean tumor volume was about 90 mm^3, the mice were randomly grouped into a physiological saline group, a BT001021 (3 mg/kg, IV, BIW×3W) group, a positive drug Immu-132 (3 mg/kg, IV, BIW×3W) group, a T030 group and a SN38 group according to the tumor size, followed by tail intravenous injection of corresponding drugs twice a week for a total of 6 times. After administration, the tumor volume and body weight of the mice were observed and measured regularly.

Data set [2] deals with MDA-MB-468 (Trop-2 positive cell lines). Nature of the data set: In-vitro cell activity test (CCK8), MDA-MB-468. In kind it is cell-based. Conditions: Homo sapiens, 96 h; MDA-MB-468, 7500 cells/well, 4 days; read-out: EC50 (nM), killing effects of bioactive molecules on cells. As to the method:
(§1) First, tumor cells MDA-MB-468 (Trop-2 positive cell lines) and HCC1806 (Trop-2 positive cell lines) were cultured. The bioactive molecules and ADC molecules disclosed in the disclosure were co-cultured with the tumor cells, then a CCK8 reagent (Dojindo Molecular Technologies, Inc., Cat: CK04, Lot:JJ744) was added. The activity of dehydrogenase in mitochondria was tested through readings (detection wave length was 450 nm) from a microplate reader (manufacturer: Molecular Devices, model: SpectraMax M2) so as to evaluate the inhibitory effect of ADC on cell proliferation.
(§2) In-vitro cell activity testing: bioactive molecules or ADCs were diluted (12 concentration gradients) with corresponding test media (containing 2% FBS). The tumor cells were trypsinized with trypsin by a conventional method, collected and counted, and then resuspended with corresponding test media (containing 2% FBS). Diluted bioactive molecules or ADCs were added to a 96-well plate, and then cells were added. 20 μL of the CCK8 reagent was added to each well and reacted for 4 h, and readings (detection wavelength was 450 nm) were taken from a microplate reader.

The test system of data set [3] is HCC1806 (Trop-2 positive cell lines). Put plainly: In-vitro cell activity test (CCK8), HCC1806. In kind it is cell-based. The settings on record: Homo sapiens, read-out: EC50 (nM), killing effects of bioactive molecules on cells. As to the method:
as §1, §2

The nature of data set [4]: Experimental example 6: pharmacokinetics of BT001021 and T-030 in NCI-N87 tumor-bearing mice (T-030 in tumor and serum, LC-MS/MS). The format is in vivo, Balb/c-nu mice. The settings on record: T-030 0.23 mg/kg, single dose; for Cmax / AUC(0-t) / MRT inf / half-life: iv, 0.23 mg/kg; for AUC(0-t): read-out: AUClast (h*ng/ml) of T-030; for MRT inf: read-out: MRTINF (h) of T-030; for half-life: read-out: T1/2 (h) of T-030 (converted). From the text: Experimental example 6 was used to evaluate pharmacokinetics of antibody drug conjugates and bioactive molecules in vivo. Specifically, in the experiment, a tumor-bearing mice model was constructed by subcutaneous xenograft of a human gastric cancer cell line NCI-N87 to Balb/c-nu mice. After the tumor volume was 100-200 mm^3, the mice were randomly grouped, and intravenously administrated with a single dose of BT001021 and T-030. The concentration of the T-030 in tumor tissues and serum was determined to evaluate the pharmacokinetics in vivo of the antibody conjugate BT001021 and the bioactive molecule T-030 in the tumor-bearing mice.
Tumor-bearing mice (4 mice/group) with tumor volume of 100-200 mm^3 were randomly grouped (the number of groups was determined according to sample number), and the administration route was single tail intravenous injection.
NCI-N87 cells were cultured in a 1640 culture medium containing 10% heat-inactivated fetal bovine serum at 37° C. and 5% CO2. NCI—N87 cells in the exponential growth stage were collected, resuspended in PBS to a suitable concentration, and inoculated subcutaneously into Balb/c-nu mice to construct xenograft models of […]. When the mean tumor volume was about 100-200 mm^3, the mice were randomly grouped into a physiological saline group, a T-030 (0.23 mg/kg, IV, single dose) group and a BT001021 (10 mg/kg, IV, single dose) group according to the tumor size, followed by tail intravenous injection of corresponding drugs. For the T-030 group, serum and tumor tissues were collected 1 h, 2 h, 4 h, 8 h, 24 h and 72 h after administration (T-030 was not detected in the serum and tumor tissues 72 h after administration, therefore, serum and tumor tissues were not collected 168 h after administration). For BT001021 group, serum and tumor tissues were collected 1 h, 2 h, 4 h, 8 h, 24 h, 72 h and 168 h after administration to test the concentration of the T-030 in the serum and the tumors by LC-MS/MS. The administration dose of the T-030 (0.23 mg/kg) was converted to isomolar dose (10 mg/kg) of BT001021.

The mark [5] stands for this setting: Balb/c-nu, mouse, in vivo, Serum.
[6] abbreviates: Balb/c-nu, mouse, in vivo, Tumor.

Like-named read-outs stand apart in the source and are kept apart here. Non-standard residues stand in square brackets, D forms with d. Residues, ends and D or L forms follow the SMILES beside them. ξ: configuration not given here. *: point of attachment. Dolaproine = CO[C@@H]([C@@H]1CCCN1)[C@@H](C)C(=O)O; Dil = CC[C@H](C)[C@H](NC)[C@@H](CC(=O)O)OC; NH(4-aminobenzyl) = Nc1ccc(CN*)cc1; NMe2Val = CC(C)[C@@H](C(=O)*)N(C)C; β3hF = N[C@H](CC(=O)O)Cc1ccccc1; ξF = NC(Cc1ccccc1)C(=O)O

`CCc1c2c(nc3ccc(O)cc13)-c1cc3c(c(=O)n1C2)COC(=O)[C@]3(O)CC` [SN-38]: in data set [1], the “Tumor Volume (mm^3) (x ± S)” value is reported as 416.11 ± 195.15 mm^3 and the “Tumor growth inhibition rate (%)” value was −2.75%.
On to `CC[C@H](C)[C@@H]([C@@H](CC(=O)N1CCC[C@H]1[C@H](OC)[C@@H](C)C(=O)NC(Cc1ccccc1)C(=O)NCc1ccc(N)cc1)OC)N(C)C(=O)[C@@H](NC(=O)[C@H](C(C)C)N(C)C)C(C)C` (stereo partly drawn) [T001, (2S)—N-((3R,4S,5S)-1-((2S)-2-((1R,2R)-3-((1-((4-aminobenzyl)amino)-1-oxo-3-phenylpropan-2-yl)amino)-1-methoxy-2-methyl-3-propionyl)pyrrolidin-1-yl)-3-methoxy-5-methyl-1-heptanoyl-4-yl)-2-((S)-2-(dimethylamino)-3-methylbutyrylamino)-N,3-dimethylbutyramide] (NMe2Val-V[Dil][Dolaproine][ξF]-{NH(4-aminobenzyl)}), for which the EC50 in data set [2] amounted to 1.13 nM.
The same measure, in the same setting: then `CC[C@H](C)[C@@H]([C@@H](CC(=O)N1CCC[C@H]1[C@H](OC)[C@@H](C)C(=O)N[C@@H](Cc1ccccc1)C(=O)NCc1ccc(N)cc1)OC)N(C)C(=O)[C@@H](NC(=O)[C@H](C(C)C)N(C)C)C(C)C` [T011] (NMe2Val-V[Dil][Dolaproine]F-{NH(4-aminobenzyl)}), with 0.211 nM; and `CC[C@H](C)[C@@H]([C@@H](CC(=O)N1CCC[C@H]1[C@H](OC)[C@@H](C)C(=O)N[C@H](Cc1ccccc1)C(=O)NCc1ccc(N)cc1)OC)N(C)C(=O)[C@@H](NC(=O)[C@H](C(C)C)N(C)C)C(C)C` [T012] (NMe2Val-V[Dil][Dolaproine][dF]-{NH(4-aminobenzyl)}), with 1.62 nM.
For `CC[C@H](C)[C@@H]([C@@H](CC(=O)N1CCC[C@H]1[C@H](OC)[C@@H](C)C(=O)N[C@H](CC(=O)NCc1ccc(N)cc1)Cc1ccccc1)OC)N(C)C(=O)[C@@H](NC(=O)[C@H](C(C)C)N(C)C)C(C)C` [T013] (NMe2Val-V[Dil][Dolaproine][β3hF]-{NH(4-aminobenzyl)}), in data set [2], the 50% effective concentration (EC50) came out at 0.414 nM.
Turning to `CC[C@H](C)[C@@H]([C@@H](CC(=O)N1CCC[C@H]1[C@H](OC)[C@@H](C)C(=O)NCC(=O)NCc1ccc(N)cc1)OC)N(C)C(=O)[C@@H](NC(=O)[C@H](C(C)C)N(C)C)C(C)C` [T015] (NMe2Val-V[Dil][Dolaproine]G-{NH(4-aminobenzyl)}), in data set [2], the EC50 amounted to 7.43 nM.
Take `CC[C@@]1(O)C(=O)OCc2c1cc1n(c2=O)Cc2c-1nc1ccccc1c2CCN(C(C)=O)C(C)C` [T-028, (S)—N-(2-(4-ethyl-4-hydroxyl-3,14-dione-3,4,12,14-tetrahydro-1H-pyrano [3′,4′,6,7]indolizino[1,2-b]quinolin-11-yl)ethyl)-N-isopropylacetamide]: the concentration for a half-maximal effect (EC50) in data set [3] (HCC1806, 72 h) was 6.02 nM.
Consider `CC[C@@]1(O)C(=O)OCc2c1cc1n(c2=O)Cc2c-1nc1ccccc1c2CCN(C(C)C)S(C)(=O)=O` [T-030, (S)—N-(2-(4-ethyl-4-hydroxyl-3,14-dione-3,4,12,14-tetrahydro-1H-pyrano[3′,4′,6,7]indolizino[1,2-b]quinolin-11-yl)ethyl)-N-isopropylmethanesulfonamide], for which the “T-030 in the serum and tumor tissues” value in data set [4] (72 h after administration, IV) is “not detected”. Besides, in data set [4] (setting [5]), the Cmax worked out at 1.81 ng/mL, the AUC(0-t) worked out at 5.58 ng·h/mL, the MRT inf is 1.11 h and the half-life is 1.76 h. Besides, in data set [4] (setting [6]), the maximum concentration (Cmax) is 1.2 ng/mL, the AUC(0-t) is 3.85 ng·h/mL, the MRT inf amounted to 1.52 h and the half-life was 2.55 h. Moreover, the time of peak concentration (Tmax) in data set [4] (Balb/c-nu, mouse, in vivo, Tumor, IV) was determined as 1 h. In data set [1], the “Tumor Volume (mm^3) (x ± S)” value is reported as 339.02 ± 152.80 mm^3 and the “Tumor growth inhibition rate (%)” value amounted to 21.48%. Also, the half-maximal effective concentration (EC50) in data set [3] (72 h, HCC1806, 7500 cells/well, 3 days) amounted to 6.73 nM.

A word on the EC50: it is the concentration needed to bring the measured effect to its halfway point. As usually defined, the Cmax is the maximum level reached in the sampled fluid or tissue. By Tmax is commonly meant the time from dosing to the highest level.
